The record followed here is ChEMBL document CHEMBL5528002, “Identification of selective 5-LOX and FLAP inhibitors as novel anti-inflammatory agents by ligand-based virtual screening” (Eur J Med Chem, 2024).

Each structure is given as a SMILES string. Activity calls are given as the source filed them. No cut-off for these calls is given here.

For experiment [1], the system named is Macrophage cell line. Put plainly: Effect on lipid mediator formation in human M2-like phenotype MDM cells by measuring RvD1 formation at 10 uM pre-incubated for 15 mins followed by SACM stimulation and measured after 90 mins by UPLC-MS/MS analysis relative to control. The class given is functional. Particulars: time 105 min, 1.75 h.
The test system of experiment [2] is Macrophage cell line. Put plainly: Effect on lipid mediator formation in human M2-like phenotype MDM cells by measuring t-LTB4 formation at 10 uM pre-incubated for 15 mins followed by SACM stimulation and measured after 90 mins by UPLC-MS/MS analysis relative to control. In kind it is functional. Particulars: time 105 min, 1.75 h.
The subject of experiment [3] is Macrophage cell line. Put plainly: Effect on lipid mediator formation in human M2-like phenotype MDM cells by measuring RvD2 formation at 10 uM pre-incubated for 15 mins followed by SACM stimulation and measured after 90 mins by UPLC-MS/MS analysis relative to control. In kind it is functional. The following applies: time 105 min, 1.75 h.
In experiment [4] the test system is Macrophage cell line. Put plainly: Effect on lipid mediator formation in human M2-like phenotype MDM cells by measuring 14-HDHA formation at 10 uM pre-incubated for 15 mins followed by SACM stimulation and measured after 90 mins by UPLC-MS/MS analysis (reference value: 1517 +/- 298 pg/ml). The class given is functional. The following applies: time 105 min, 1.75 h.

The target in experiment [5] is T1, Bifunctional epoxide hydrolase 2 (Homo sapiens) (UniProt P34913).
T1 sequence (whole entry): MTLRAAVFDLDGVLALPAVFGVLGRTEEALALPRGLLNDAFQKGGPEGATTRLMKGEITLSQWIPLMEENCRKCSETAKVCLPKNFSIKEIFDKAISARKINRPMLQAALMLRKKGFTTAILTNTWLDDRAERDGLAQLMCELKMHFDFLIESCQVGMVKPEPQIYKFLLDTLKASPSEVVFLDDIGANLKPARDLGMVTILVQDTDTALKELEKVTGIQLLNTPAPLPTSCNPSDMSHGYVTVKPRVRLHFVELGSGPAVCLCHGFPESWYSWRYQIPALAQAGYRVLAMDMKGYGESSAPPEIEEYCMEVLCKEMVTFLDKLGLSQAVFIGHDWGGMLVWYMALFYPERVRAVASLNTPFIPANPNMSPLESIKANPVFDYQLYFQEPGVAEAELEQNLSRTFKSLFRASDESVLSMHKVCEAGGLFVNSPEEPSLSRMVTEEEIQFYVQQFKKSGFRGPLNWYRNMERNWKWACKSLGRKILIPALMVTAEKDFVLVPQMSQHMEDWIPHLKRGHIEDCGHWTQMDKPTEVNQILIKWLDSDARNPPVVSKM
Put plainly: Inhibition of human sEH assessed as enzyme remaining activity at 10 uM relative to control.

For experiment [6], the system named is Macrophage cell line. Put plainly: Effect on lipid mediator formation in human M2-like phenotype MDM cells by measuring 15-HETE formation at 10 uM pre-incubated for 15 mins followed by SACM stimulation and measured after 90 mins by UPLC-MS/MS analysis relative to control. In kind it is functional. The following applies: time 105 min, 1.75 h.
In experiment [7] the test system is Macrophage cell line. Put plainly: Effect on lipid mediator formation in human M1-like phenotype MDM cells by measuring PGD2 formation at 10 uM pre-incubated for 15 mins followed by SACM stimulation and measured after 90 mins by UPLC-MS/MS analysis (reference value: 46 +/- 15 pg/ml). The class given is functional. The following applies: time 105 min, 1.75 h.
Experiment [8] deals with Macrophage cell line. Put plainly: Effect on lipid mediator formation in human M2-like phenotype MDM cells by measuring PGE2 formation at 10 uM pre-incubated for 15 mins followed by SACM stimulation and measured after 90 mins by UPLC-MS/MS analysis relative to control. In kind it is functional. Particulars: time 105 min, 1.75 h.
The test system of experiment [9] is Macrophage cell line. Put plainly: Effect on lipid mediator formation in human M1-like phenotype MDM cells by measuring 5,15-diHETE formation at 10 uM pre-incubated for 15 mins followed by SACM stimulation and measured after 90 mins by UPLC-MS/MS analysis relative to control. The class given is functional. Particulars: time 105 min, 1.75 h.
The test system of experiment [10] is Macrophage cell line. Put plainly: Effect on lipid mediator formation in human M1-like phenotype MDM cells by measuring EPA formation at 10 uM pre-incubated for 15 mins followed by SACM stimulation and measured after 90 mins by UPLC-MS/MS analysis relative to control. In kind it is functional. Particulars: time 105 min, 1.75 h.
Experiment [11] concerns Macrophage cell line. Put plainly: Effect on lipid mediator formation in human M1-like phenotype MDM cells by measuring TXB2 formation at 10 uM pre-incubated for 15 mins followed by SACM stimulation and measured after 90 mins by UPLC-MS/MS analysis (reference value: 8866 +/- 2561 pg/ml). The class given is functional. The following applies: time 105 min, 1.75 h.
In experiment [12] the test system is Macrophage cell line. Put plainly: Effect on lipid mediator formation in human M2-like phenotype MDM cells by measuring MaR2 formation at 10 uM pre-incubated for 15 mins followed by SACM stimulation and measured after 90 mins by UPLC-MS/MS analysis relative to control. The class given is functional. Particulars: time 105 min, 1.75 h.
The test system of experiment [13] is Macrophage cell line. Put plainly: Effect on lipid mediator formation in human M1-like phenotype MDM cells by measuring 5S,6R-diHETE formation at 10 uM pre-incubated for 15 mins followed by SACM stimulation and measured after 90 mins by UPLC-MS/MS analysis (reference value: 226 +/- 78 pg/ml). In kind it is functional. The following applies: time 105 min, 1.75 h.

Experiment [14] has as its system Macrophage cell line. Put plainly: Effect on lipid mediator formation in human M2-like phenotype MDM cells by measuring arachidonic acid formation at 10 uM pre-incubated for 15 mins followed by SACM stimulation and measured after 90 mins by UPLC-MS/MS analysis relative to control. The class given is functional. The following applies: time 105 min, 1.75 h.
For experiment [15], the system named is Macrophage cell line. Put plainly: Effect on lipid mediator formation in human M1-like phenotype MDM cells by measuring 4-HDHA formation at 10 uM pre-incubated for 15 mins followed by SACM stimulation and measured after 90 mins by UPLC-MS/MS analysis relative to control. In kind it is functional. Particulars: time 105 min, 1.75 h.
Experiment [16] can be described thus: Antioxidant activity assessed as DPPH radical scavenging activity at 1 uM incubated for 30 min by DPPH assay. The class given is functional. Background: Loss of DPPH colour is used to gauge radical scavenging.
In experiment [17] the test system is Macrophage cell line. Put plainly: Effect on lipid mediator formation in human M2-like phenotype MDM cells by measuring 7-HDHA formation at 10 uM pre-incubated for 15 mins followed by SACM stimulation and measured after 90 mins by UPLC-MS/MS analysis (reference value: 315 +/- 55 pg/ml). In kind it is functional. Particulars: time 105 min, 1.75 h.
Experiment [18] deals with Macrophage cell line. Put plainly: Effect on lipid mediator formation in human M1-like phenotype MDM cells by measuring DHA formation at 10 uM pre-incubated for 15 mins followed by SACM stimulation and measured after 90 mins by UPLC-MS/MS analysis (reference value: 66334 +/- 8894 pg/ml). The class given is functional. Particulars: time 105 min, 1.75 h.
Experiment [19] concerns Macrophage cell line. Put plainly: Effect on lipid mediator formation in human M2-like phenotype MDM cells by measuring 5-HEPE formation at 10 uM pre-incubated for 15 mins followed by SACM stimulation and measured after 90 mins by UPLC-MS/MS analysis (reference value: 299 +/- 20 pg/ml). The class given is functional. Particulars: time 105 min, 1.75 h.
Experiment [20] concerns Macrophage cell line. Put plainly: Effect on lipid mediator formation in human M2-like phenotype MDM cells by measuring 12-HETE formation at 10 uM pre-incubated for 15 mins followed by SACM stimulation and measured after 90 mins by UPLC-MS/MS analysis (reference value: 3325 +/- 789 pg/ml). The following applies: time 105 min, 1.75 h. The class given is functional.
Experiment [21] relates to Macrophage cell line. Put plainly: Effect on lipid mediator formation in human M2-like phenotype MDM cells by measuring 14-HDHA formation at 10 uM pre-incubated for 15 mins followed by SACM stimulation and measured after 90 mins by UPLC-MS/MS analysis relative to control. The class given is functional. Particulars: time 105 min, 1.75 h.
Experiment [22] has as its system Macrophage cell line. Put plainly: Effect on lipid mediator formation in human M2-like phenotype MDM cells by measuring arachidonic acid formation at 10 uM pre-incubated for 15 mins followed by SACM stimulation and measured after 90 mins by UPLC-MS/MS analysis (reference value: 92007 +/- 4892 pg/ml). In kind it is functional. The following applies: time 105 min, 1.75 h.

`COc1ccc(C2=C/C(=C/c3ccc(O)cc3O)C(=O)O2)cc1`: the Activity in the experiment with Macrophage cell line [1] came out at 114%; in the experiment with Macrophage cell line [2], 11%; in the experiment with Macrophage cell line [3], 112%; with Macrophage cell line [4], 2718 pg/mL; in [5], 71.5%; in the experiment on Macrophage cell line [6], 136%. For the same molecule, the Activity is 72 pg/mL with Macrophage cell line [7]; 259% in the experiment with Macrophage cell line [8]; 13% in the experiment with Macrophage cell line [9]; 136% in the experiment on Macrophage cell line [10]; 8338 pg/mL with Macrophage cell line [11]; 219% in the experiment on Macrophage cell line [12]. Also, the Activity in the experiment on Macrophage cell line [13] was determined as 12 pg/mL; in the experiment on Macrophage cell line [14], 103%; in the experiment on Macrophage cell line [15], 80%; in the experiment on Macrophage cell line [17], 383 pg/mL; in the experiment with Macrophage cell line [18], 71742 pg/mL; in the experiment with Macrophage cell line [19], 55 pg/mL. Also, the Activity with Macrophage cell line [20] is 3796 pg/mL; in the experiment on Macrophage cell line [21], 179%; in the experiment with Macrophage cell line [22], 94519 pg/mL. The outcome in experiment [16] was inactive.
As to `Oc1ccc(CCC2CCC(c3ccc(O)cc3)CO2)cc1` (centres undefined), the Activity in the experiment on Macrophage cell line [1] worked out at 82%; in the experiment with Macrophage cell line [2], 20%; with Macrophage cell line [3] it was 96%; in the experiment with Macrophage cell line [4], 2101 pg/mL; in [5], 103%; in the experiment on Macrophage cell line [6], 144%. Also, the Activity in the experiment with Macrophage cell line [7] amounted to 40 pg/mL; in the experiment on Macrophage cell line [8] it was 147%; in the experiment with Macrophage cell line [9], 30%; with Macrophage cell line [10], 113%; in the experiment on Macrophage cell line [11] it was 8319 pg/mL; in the experiment on Macrophage cell line [12], 191%. Besides, the Activity in the experiment with Macrophage cell line [13] is 11 pg/mL; in the experiment with Macrophage cell line [14], 113%; in the experiment with Macrophage cell line [15], 75%; in the experiment with Macrophage cell line [17], 364 pg/mL; with Macrophage cell line [18], 62371 pg/mL; in the experiment on Macrophage cell line [19], 102 pg/mL. In addition, the values for the Activity in the experiment with Macrophage cell line [20], in the experiment with Macrophage cell line [21] and with Macrophage cell line [22] were 4047 pg/mL, 139% and 103809 pg/mL, respectively. The result in experiment [16] was inactive.
